The record followed here is article PMC12355554, “Development of novel mitochondrial pyruvate carrier inhibitors for breast cancer treatment” (The Journal of Biological Chemistry, 2025).

The subject of data set [1] is 4T1 cells. Briefly: L-lactate accumulation assay, 4T1. The note with it: MCT1-expressing 4T1 cells; 24 h.
Description: To test this, we assayed intracellular lactate accumulation following C5 treatment in MCT1-expressing 4T1 cells and MCT4-expressing MDA-MB-231 cells using commercially available lactate kits.
On the third day, media were aspirated, and wells were rinsed twice with cold PBS. […] At this time, 1 ml of PBS was added to each well and underwent freeze–thaw lysis at −80 °C. Media in each well were aliquoted and centrifuged (16,000g, 10 min, 4 °C). The lysate supernatant was then aliquoted, and pellet was discarded. L-lactate concentration was then determined using Eton Biosciences L-Lactate assay kit 1 by mixing lysate sample with L-lactate assay solution in duplicate, incubating for 30 min (37 °C, 0% CO2) and measuring absorbance of enzyme produced INT formazan at 490 nm using a BioTek Synergy 2 plate reader. Absorbance values were compared with an L-lactate standard curve concomitantly ran with test samples to determine lactate concentration in each sample. Lactate concentrations were normalized to total protein using a Pierce Bicinchoninic Acid Protein Assay Kit.
The subject of a further data set is 67NR tumor. Briefly: Tumor efficacy study in a 67NR syngraft. The note with it: 14-day treatment.
Data set [2] is described as follows: General tolerability dose escalation, intraperitoneal, CD-1 mice. The class given is in vivo. On the procedure: After obtaining PK parameters of C5, we carried out a general tolerability dose escalation study via intraperitoneal injection to determine a maximum tolerated dose for future tumor efficacy studies (Fig. S3B). […] In CD-1 mice, dosing began at 5 mg/kg for 7 days. After 7 days, dosing was increased to 6 mg/kg; however, at this dose, there were acute respiratory effects and lethargy observed in the mice deeming it a toxic dose.
Dosing was increased to 6 mg/kg on day 8, but significant acute respiratory effects were observed indicating toxicity. Due to this acute effect, the study was terminated, and all mice were euthanized. The study was carried out following Institutional Animal Care and Use Committee protocol 2211-40546A.

Data set [3] concerns the target T1, mitochondrial pyruvate carrier (MPC) (Mus musculus, UniProt P63030+Q9D023).
T1 construct: 4T1 cells were seeded (20,000 cells/well) onto Seahorse XFe96 well plates; host or cells: 4T1 murine breast cancer cells, rPFO-permeabilized
T1 sequence (P63030 1-109): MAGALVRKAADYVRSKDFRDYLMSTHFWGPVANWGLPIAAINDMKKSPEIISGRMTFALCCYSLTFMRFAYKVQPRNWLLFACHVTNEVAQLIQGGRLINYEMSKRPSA
T1 sequence (Q9D023 1-127): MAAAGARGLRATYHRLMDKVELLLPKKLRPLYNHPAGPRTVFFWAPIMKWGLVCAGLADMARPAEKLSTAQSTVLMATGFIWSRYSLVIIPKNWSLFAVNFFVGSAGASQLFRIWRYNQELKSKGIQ
The experiment in a line: Pyr-driven respiration in permeabilized 67NR cells. The class given is cell-based, murine.

Data set [4] addresses T1, mitochondrial pyruvate carrier (MPC). The experiment in a line: Methyl pyruvate reversal of inhibited Pyr-driven respiration. The settings on record: permeabilized 4T1 cells; 20 mM methyl Pyr. Format: cell-based, murine. The source says:
(§1) Although our initial experiments and previous literature illustrate the ability of the candidate compounds to inhibit Pyr-driven respiration, we sought to investigate the ability of candidate compounds to inhibit respiration fueled by other metabolic substrates, glutamate and succinate (Fig. 2). Glutamate, similar to Pyr oxidation, results in NADH equivalents that fuel complex I-mediated respiration, and succinate metabolism offers FADH2 for electrons in complex II-driven respiratory processes. […] To further validate the mode of action of the candidate compounds, a series of similar Seahorse experiments were employed (Fig. 2, A–C). In these experiments, 4T1 cells were first permeabilized and were then offered metabolic substrates Pyr (Pyr/Mal; Fig. 2A), glutamate (Glu/Mal, Fig. 2B), or succinate (Fig. 2C), and the resulting OCR was observed. As described previously, Mal and DCA were included in the substrate milieu of glutamate respiration experiments. […] To validate that inhibition of Pyr respiration is due to mitochondrial Pyr uptake and not other Pyr-processing enzymes (i.e., Pyr dehydrogenase), a parallel experiment using methyl pyruvate (MePyr) was employed (Fig. 2, E and F). MePyr is permeable to the mitochondrial membranes, where in the matrix, mitochondrial esterase hydrolysis activity provides Pyr.
Permeabilized cell assays were performed using rPFO as described previously. […]

Data set [5] concerns 4T1. The experiment in a line: MTT cell proliferation inhibition assay, 4T1. The class given is cell-based, murine. The note with it: Mus musculus, 72 h, 3 days, average ± SEM. On the procedure: (§2) Confluent cell cultures were treated with trypsin and resuspended at 5 × 10^4 cells/ml. To a 96-well plate, 100 μl of the 5 × 10^4 cells/ml solution were added and allowed to incubate at 37 °C, 5% CO2 for 24 h. Compounds were then added and allowed to incubate for 3 days. […] Following the 4-h incubation with 3-(4,5-dimethylthiazol-2-yl)-2,5-diphenyltetrazolium bromide, 100 μl of SDS (0.1 g/ml, 0.01 N HCl) was added, and 96-well plates were allowed to incubate for an additional 4 h. […] Treatment absorbances are taken as percentages of the average untreated absorbances and plotted against log(concentration) in GraphPad Prism 10 (GraphPad Software, Inc) to generate effective concentration values where 50% of the cells are not proliferating (EC50).

The test system of data set [6] is 4T1. Briefly: Sulforhodamine B cell proliferation inhibition assay, 4T1. The settings on record: Mus musculus, 72 h, average ± SEM. The class given is cell-based, murine. On the procedure:
(§3) Cells were seeded (3 × 10^4 cells/well) in 48-well plates and incubated overnight (37 °C, 5% CO2). Test compounds were then exposed to cells in duplicate in serial dilution fashion and were incubated for an additional 72 h (37 °C, 5% CO2). Media were then aspirated, and cells were washed three times with cold PBS and left overnight to dry fix. […] Dyed cells were then lysed with Tris (10 mM, pH 10), and absorbance readings were recorded at 540 nm of each well. Treatment absorbances are taken as percentages of the average untreated absorbances and plotted against log(concentration) in GraphPad Prism 10 to generate effective concentration values where 50% of the cells are not proliferating (EC50).

Data set [7] concerns MDA-MB-231. The experiment in a line: MTT cell proliferation inhibition assay, MDA-MB-231. The class given is cell-based. The note with it: Homo sapiens, 72 h, 3 days. As for the experimental part:
as §2

Data set [8] in a line: Maximum tolerated dose study, oral dosing, 21 days. Format: in vivo, severe combined immunodeficient mice.
For data set [9], the system named is succinate-driven respiration in 4T1 cells. Briefly: Seahorse succinate-driven respiration in permeabilized 4T1 cells. Format: cell-based, murine. The settings on record: candidate compounds 1 μM.
Description: as §1
Permeabilized cell assays were performed using rPFO as described previously. 4T1 cells were seeded (20,000 cells/well) onto Seahorse XFe96 well plates and incubated overnight in growth media at 37 °C and 5% CO2 for adherence. On the day of the assay, growth media were aspirated and replaced with MAS buffer (70 mM sucrose, 220 mM mannitol, 10 mM potassium phosphate monobasic, 5 mM magnesium chloride, 2 mM Hepes, and 1 mM EGTA) after 3X rinse of growth media to remove serum and endogenous metabolic substrates, and incubated at 37 °C in a non-CO2 incubator. Respective inhibitor and substrate milieu's were prepared in MAS buffer for port injections A–D at 8X, 9X, 10X, and 11X the target cell concentrations to account for intrinsic dilution factor of in situ injections of each port. […] Final substrate concentrations for specific tests were as follows: (5 mM Pyr , 0.5 mM Mal, 2 mM DCA; 10 mM glutamate, 0.5 mM Mal, 2 mM DCA; 10 mM succinate, 2 μM rotenone; 20 mM methyl Pyr, 5 mM Pyr, 0.5 mM Mal, and 2 mM DCA). ATP rate assays and mitochondrial stress tests were performed according to the manufacturer's (Agilent) instructions.

In data set [10] the test system is 4T1 cells. The experiment in a line: Seahorse mitochondrial stress test in intact 4T1 cells. The class given is cell-based, murine.
The subject of data set [11] is MDA-MB-231. Briefly: Sulforhodamine B cell proliferation inhibition assay, MDA-MB-231. The note with it: Homo sapiens, 72 h. Format: cell-based. As for the experimental part: as §3

SMILES strings stand for the structures. “Also recorded” adds a separate entry of the source. Where only a bound is given, the exact number is not on record here.

A word on the EC50: it is the midpoint of the concentration-response curve. Turning to `CN(Cc1ccc(C(F)(F)F)cc1)c1ccc2cc(C(=O)O)c(=O)oc2c1.NC(CO)(CO)CO` [C5, 1,3-dihydroxy-2-(hydroxymethyl)propan-2-aminium 7-(methyl(4-(trifluoromethyl)benzyl)amino)-2-oxo-2H-chromene-3-carboxylate], the intracellular lactate accumulation result with 4T1 cells [1] is “potent accumulation of lactate”. Further, in the data set on 67NR tumor, the mouse body weight result is “remained stable”. In data set [2], the “toxic dose (acute respiratory effects and lethargy)” value was 6 mg/kg. In addition, the MTD at 7 days in data set [2] (female, mouse, in vivo, ip, once daily 7 days, read-out: maximum tolerated dose) was 5 mg/kg. Also, the “effect on pyruvate driven respiration” value in data set [3] is reported as “inhibits”. Moreover, the “reversal of Pyr-driven respiration effects by methyl pyruvate” value in data set [4] was “able to reverse”. The EC50 was 23.4 ± 4.9 µM in the data set with 4T1 [5], 67.9 ± 7.3 µM with 4T1 [6], above 1000 µM in the data set on MDA-MB-231 [7] and above 1000 µM in the data set on MDA-MB-231 [11]. Moreover, in [8] (female, BALB/c, mouse, in vivo, oral, daily for 21 days), the MTD at 21 days is 40 mg/kg. For the same compound, in [8] (oral 10, 20, 40 mg/kg daily for 21 days), the “changes in body weight or behavior” value was “not any significant changes”. Besides, the “effect on succinate-driven respiration” value in data set [9] was “does not alter; also recorded: did not alter”. Further, the “compensatory glycolysis (extracellular acidification rates)” value in the data set with 4T1 cells [10] was “dose-dependent decrease”. Further, the “mitochondrial respiration (OCR)” value in the data set with 4T1 cells [10] (media with glucose, Pyr, glutamine) is recorded as “inhibited mitochondrial respiration in a dose-dependent fashion”.
